Several values for one entry are separate records, joined by “and”; a condition that tells them apart may be missing. Identical values can stand only once.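 Test compounds were applied to cells in 96-well plates for 48 hours at 5 doses. Abbreviation: GI50, concentration required for 50% inhibition of growth.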 Activity calls are given as the source filed them. No stated cut-off is given here; in the data, active = GI50 up to about 1.1 µM and inactive = higher.
Legend:
Test in all cases: DTP human tumour cell line panel, 48 h
A549 = system: A549
CAKI-1 = system: CAKI-1
CCRF-CEM = system: CCRF-CEM
COLO 205 = system: COLO 205
DU-145 = system: DU-145
EKVX = system: EKVX
HCC 2998 = system: HCC 2998
HCT-116 = system: HCT-116
HCT-15 = system: HCT-15
HL-60 = system: HL-60
HOP-62 = system: HOP-62
HOP-92 = system: HOP-92
NCI-H23 = system: NCI-H23
OVCAR-4 = system: OVCAR-4
SF-295 = system: SF-295
SF-539 = system: SF-539
SNB-19 = system: SNB-19
T47D = system: T47D
TK-10 = system: TK-10
K562 = system: K562

Structure (SMILES) | GI50 (A549) | GI50 (CAKI-1) | GI50 (CCRF-CEM) | GI50 (COLO 205) | GI50 (DU-145) | GI50 (EKVX) | GI50 (HCC 2998) | GI50 (HCT-116) | GI50 (HCT-15) | GI50 (HL-60) | GI50 (HOP-62) | GI50 (HOP-92) | GI50 (NCI-H23) | GI50 (OVCAR-4) | GI50 (SF-295) | GI50 (SF-539) | GI50 (SNB-19) | GI50 (T47D) | GI50 (TK-10) | GI50 (K562)
COc1cc2c(cc1OC)C13CCN4CC5CCOC6CC(=O)N2C1C6C5CC43 (stereo not drawn) | > 100 µM (inactive) | > 100 µM (inactive) | 54.5 µM (inactive) | > 100 µM (inactive) | > 100 µM (inactive) | > 100 µM (inactive) | > 100 µM (inactive) | > 100 µM (inactive) | > 100 µM | > 100 µM (inactive) | > 100 µM (inactive) | > 100 µM (inactive) | > 100 µM (inactive) | > 100 µM (inactive) | > 100 µM (inactive) | > 100 µM (inactive) | > 100 µM (inactive) | > 100 µM (inactive) | > 100 µM (inactive) | –
CC(=O)OC1OC(C2c3cccc(O)c3C(=O)c3c(O)cc(CO)cc32)C(O)C(O)C1O (stereo not drawn) | 2.8 µM (inactive) and 5.56 µM (inactive) | 2.78 µM (inactive) and 2.23 µM (inactive) | 3.04 µM (inactive) and 3.18 µM (inactive) | – | 4.55 µM (inactive) and 4.88 µM (inactive) | 3.78 µM (inactive) and 2.64 µM (inactive) | 1.85 µM (inactive) and 3.03 µM (inactive) | 3.01 µM (inactive) and 2.92 µM (inactive) | 3.37 µM and 3.51 µM | 2.32 µM (inactive) and 2 µM (inactive) | – | 3.1 µM (inactive) | 3.08 µM (inactive) and 3.33 µM (inactive) | 5.38 µM (inactive) and 6.61 µM (inactive) | 2.72 µM (inactive) and 3.62 µM (inactive) | 2 µM (inactive) and 1.95 µM (inactive) | 2.88 µM (inactive) and 3.33 µM (inactive) | 1.41 µM (inactive) and 1.73 µM (inactive) | 5.69 µM (inactive) and 5.81 µM (inactive) | 3.16 µM (inactive) and 3 µM (inactive)
CCOC(=O)C1(C(=O)OCC)C=C(c2ccccc2)N(C2OC(COC(C)=O)C(OC(C)=O)C(OC(C)=O)C2OC(C)=O)C1=S (stereo not drawn) | 59.2 µM (inactive) | > 100 µM (inactive) | 33.9 µM (inactive) | > 100 µM (inactive) | > 100 µM (inactive) | > 100 µM (inactive) | > 100 µM (inactive) | > 100 µM (inactive) | > 100 µM | 22.9 µM (inactive) | > 100 µM (inactive) | 93.3 µM (inactive) | > 100 µM (inactive) | 51.6 µM (inactive) | > 100 µM (inactive) | > 100 µM (inactive) | > 100 µM (inactive) | > 100 µM (inactive) | – | –
CC(=O)CC(C)(C)NC(=O)[C@@]1(O)CC[C@H]2[C@@H]3CCC4=CC(=O)CC[C@@H]4[C@H]3CC[C@@]21C | > 100 µM (inactive) | – | > 100 µM (inactive) | > 100 µM (inactive) | > 100 µM (inactive) | > 100 µM (inactive) | > 100 µM (inactive) | > 100 µM (inactive) | > 100 µM | 70.3 µM (inactive) | > 100 µM (inactive) | > 100 µM (inactive) | > 100 µM (inactive) | > 100 µM (inactive) | > 100 µM (inactive) | > 100 µM (inactive) | > 100 µM (inactive) | 63.1 µM (inactive) | > 100 µM (inactive) | > 100 µM (inactive)
Cc1ccnc2[nH]c(-c3ccccc3)cc(=O)c12 | 0.0153 µM (active) | 0.0116 µM (active) | 0.00589 µM (active) | 0.0039 µM (active) | 0.0313 µM (active) | 0.3 µM (active) | 0.037 µM (active) | 0.00396 µM (active) | 0.00485 µM | 0.00188 µM (active) | – | 0.0524 µM (active) | 0.0297 µM (active) | 68.7 µM (inactive) | 0.00309 µM (active) | 0.0191 µM (active) | 0.0233 µM (active) | 42.5 µM (inactive) | 0.106 µM (active) | 0.00281 µM (active)
C=C(CCC/C(C)=C/C=C/[C@H](C)CCCc1ccoc1)C[C@@H]1OC(=O)[C@H](C)[C@@H]1O | 5.7 µM (inactive) | 8.99 µM (inactive) | 11.9 µM (inactive) | 12.6 µM (inactive) | 8.55 µM (inactive) | 9.84 µM (inactive) | 10.1 µM (inactive) | 11.5 µM (inactive) | 11.4 µM | – | 8.63 µM (inactive) | 8.95 µM (inactive) | 8.69 µM (inactive) | 4.73 µM (inactive) | 8.83 µM (inactive) | 8.63 µM (inactive) | 8.81 µM (inactive) | 6.97 µM (inactive) | 10.6 µM (inactive) | 13.7 µM (inactive)
Cc1nc(C)c(N2CCN(S(=O)(=O)N(Cc3ccccc3)Cc3ccccc3)CC2)c(O)n1 | > 100 µM (inactive) | – | > 100 µM (inactive) | > 100 µM (inactive) | > 59.4 µM (inactive) | > 60 µM (inactive) | > 100 µM (inactive) | 53 µM (inactive) | > 100 µM | > 100 µM (inactive) | 9.31 µM (inactive) | 9.73 µM (inactive) | 14.3 µM (inactive) | 0.836 µM (active) | 18.7 µM (inactive) | 12.5 µM (inactive) | 8.91 µM (inactive) | 24.1 µM (inactive) | 33.6 µM (inactive) | > 100 µM (inactive)
C[C@]12CC[C@@H]3c4cc(Br)c(O)c(Br)c4CC[C@H]3[C@@H]1CC(Br)C2=O (stereo partly drawn) | 17.4 µM (inactive) | 3.7 µM (inactive) | 1.71 µM (inactive) | 7.87 µM (inactive) | 23.4 µM (inactive) | 13.2 µM (inactive) | 1.99 µM (inactive) | 3.66 µM (inactive) | 2.65 µM | 2.59 µM (inactive) | – | 20.7 µM (inactive) | – | 5.97 µM (inactive) | 16.6 µM (inactive) | 7.52 µM (inactive) | – | 4.65 µM (inactive) | 14.2 µM (inactive) | 2.29 µM (inactive)
O=c1[nH]ncc2[nH]c3c(c12)CCCc1ccccc1-3 | 33.3 µM (inactive) | 35.2 µM (inactive) | 39.9 µM (inactive) | 20.5 µM (inactive) | 54.5 µM (inactive) | 4.92 µM (inactive) | 27.9 µM (inactive) | 27.4 µM (inactive) | 28.5 µM | 21.8 µM (inactive) | 67 µM (inactive) | 72.3 µM (inactive) | 40.6 µM (inactive) | 44.5 µM (inactive) | 32.5 µM (inactive) | 30.1 µM (inactive) | 71.6 µM (inactive) | 46.9 µM (inactive) | 50.1 µM (inactive) | 12.9 µM (inactive)
CC(=O)NC(C)(C)C1CC=C(C)/C(=N\O)C1 (stereo not drawn) | > 100 µM (inactive) | – | > 100 µM (inactive) | > 100 µM (inactive) | > 100 µM (inactive) | > 100 µM (inactive) | > 100 µM (inactive) | > 100 µM (inactive) | > 100 µM | > 100 µM (inactive) | > 100 µM (inactive) | > 100 µM (inactive) | > 100 µM (inactive) | > 100 µM (inactive) | > 100 µM (inactive) | > 100 µM (inactive) | > 100 µM (inactive) | > 100 µM (inactive) | > 100 µM (inactive) | > 100 µM (inactive)
CCOC(=O)C(Cc1ccc2c(c1)CCC2)(Cc1ccc2c(c1)CCC2)C(=O)OCC | 47.5 µM (inactive) | > 100 µM (inactive) | 32.2 µM (inactive) | – | > 100 µM (inactive) | 17.4 µM (inactive) | 49 µM (inactive) | 31.7 µM (inactive) | 61.7 µM | 31.5 µM (inactive) | > 100 µM (inactive) | 26.9 µM (inactive) | 98.4 µM (inactive) | > 100 µM (inactive) | 80.7 µM (inactive) | 81.7 µM (inactive) | > 100 µM (inactive) | 34.2 µM (inactive) | > 100 µM (inactive) | 58.5 µM (inactive)
O=C(O)c1c2c(cc3c1CC1(Cc4cc5c(cc4C1=O)CCC5)C3)CCC2 (stereo not drawn) | 54.8 µM (inactive) | – | 46.2 µM (inactive) | 52.4 µM (inactive) | 98.2 µM (inactive) | 87.5 µM (inactive) | 51.9 µM (inactive) | 87.5 µM (inactive) | 74.1 µM | 65.2 µM (inactive) | > 100 µM (inactive) | > 100 µM (inactive) | 81.1 µM (inactive) | 52.2 µM (inactive) | > 100 µM (inactive) | > 100 µM (inactive) | > 100 µM (inactive) | 80 µM (inactive) | > 100 µM (inactive) | 52.4 µM (inactive)
O=C(O)/C=C/c1ccc(OS(=O)(=O)O)cc1 | > 100 µM (inactive) | > 100 µM (inactive) | – | > 100 µM (inactive) | > 100 µM (inactive) | > 100 µM (inactive) | > 100 µM (inactive) | > 100 µM (inactive) | > 100 µM | > 100 µM (inactive) | > 100 µM (inactive) | > 100 µM (inactive) | > 100 µM (inactive) | > 100 µM (inactive) | > 100 µM (inactive) | > 100 µM (inactive) | > 100 µM (inactive) | > 100 µM (inactive) | > 100 µM (inactive) | > 100 µM (inactive)
C=C(C)COc1cc(/N=C(/S)OC(C)C)ccc1Cl | 12.7 µM (inactive) | 15.3 µM (inactive) | 13.5 µM (inactive) | 16.3 µM (inactive) | 16.7 µM (inactive) | 11.8 µM (inactive) | 15.5 µM (inactive) | 15.2 µM (inactive) | 15.7 µM | 15.6 µM (inactive) | – | 13.6 µM (inactive) | 16.1 µM (inactive) | 14.5 µM (inactive) | 15.5 µM (inactive) | 16.1 µM (inactive) | 18.8 µM (inactive) | 13.3 µM (inactive) | 15.2 µM (inactive) | 11.7 µM (inactive)

— ChEMBL document CHEMBL1201862, “PubChem BioAssay data set” (2004)
